Measurements taken from publication PMC10447267, “Assessment of the potential of the MET inhibitor tepotinib to affect the pharmacokinetics of CYP3A4 and P-gp substrates” (Investigational New Drugs, 2023).

What was measured:
CYP3A4 = CYP3A4 (Homo sapiens, UniProt P08684); experiment: Study 1 (NCT03628339): effect of tepotinib on midazolam pharmacokinetics in healthy participants
Procedure: (§1) Study 1 (NCT03628339) and Study 2 (NCT03492437) were both Phase 1, open-label, single sequence, 2-period studies in 12 and 20 healthy participants, respectively (Fig. 1).
In Period 2 (Days 3 to 15), participants received 500 mg tepotinib, QD 30 min after starting a continental breakfast on Days 3 to 12. On Day 13, participants received the final dose of 500 mg tepotinib 30 min after starting a standardized breakfast identical to the one on Day 1. […] Blood samples for trough concentrations of tepotinib were collected on Days 11, 12 and 13.
(§2) Parameters included maximum plasma concentration (Cmax) and time to reach Cmax (Tmax) taken directly from the observed data. Area under the plasma concentration–time curve (AUC) from time 0 to the last measured concentration (AUC0-t), AUC over the dose interval (AUCtau) and AUC extrapolated to infinity (AUC0-∞) were calculated using the mixed log/linear trapezoidal rule. Terminal elimination half-life (t1/2) was calculated as ln(2)/λz where λz is the terminal rate constant. The primary pharmacokinetic parameters in both studies were Cmax, AUC0-t and AUC0-∞.
(§3) A similar statistical approach was taken for both studies. […] Point estimates and CIs were back-transformed to the original scale.

P-gp = P-gp (Homo sapiens, UniProt P08183); experiment: Study 2 (NCT03492437): effect of tepotinib on dabigatran pharmacokinetics in healthy participants; format: in vivo
Procedure: as §1
In Period 2 (Days 4 to 14), participants received 500 mg tepotinib QD on Days 4 to 11. […] Blood samples for trough concentrations of tepotinib were collected on Days 9 and 10. Further blood samples for tepotinib and its metabolites were also collected up to 24 h postdose on Day 10.
as §2, §3

[1] = midazolam 7.5 mg single oral dose alone, N = 12, geometric mean (geometric CV%)
[2] = midazolam 7.5 mg with tepotinib 500 mg once daily, N = 12, geometric mean (geometric CV%)
[3] = tepotinib + dabigatran versus dabigatran alone

Chain of P-gp (P08183 whole entry): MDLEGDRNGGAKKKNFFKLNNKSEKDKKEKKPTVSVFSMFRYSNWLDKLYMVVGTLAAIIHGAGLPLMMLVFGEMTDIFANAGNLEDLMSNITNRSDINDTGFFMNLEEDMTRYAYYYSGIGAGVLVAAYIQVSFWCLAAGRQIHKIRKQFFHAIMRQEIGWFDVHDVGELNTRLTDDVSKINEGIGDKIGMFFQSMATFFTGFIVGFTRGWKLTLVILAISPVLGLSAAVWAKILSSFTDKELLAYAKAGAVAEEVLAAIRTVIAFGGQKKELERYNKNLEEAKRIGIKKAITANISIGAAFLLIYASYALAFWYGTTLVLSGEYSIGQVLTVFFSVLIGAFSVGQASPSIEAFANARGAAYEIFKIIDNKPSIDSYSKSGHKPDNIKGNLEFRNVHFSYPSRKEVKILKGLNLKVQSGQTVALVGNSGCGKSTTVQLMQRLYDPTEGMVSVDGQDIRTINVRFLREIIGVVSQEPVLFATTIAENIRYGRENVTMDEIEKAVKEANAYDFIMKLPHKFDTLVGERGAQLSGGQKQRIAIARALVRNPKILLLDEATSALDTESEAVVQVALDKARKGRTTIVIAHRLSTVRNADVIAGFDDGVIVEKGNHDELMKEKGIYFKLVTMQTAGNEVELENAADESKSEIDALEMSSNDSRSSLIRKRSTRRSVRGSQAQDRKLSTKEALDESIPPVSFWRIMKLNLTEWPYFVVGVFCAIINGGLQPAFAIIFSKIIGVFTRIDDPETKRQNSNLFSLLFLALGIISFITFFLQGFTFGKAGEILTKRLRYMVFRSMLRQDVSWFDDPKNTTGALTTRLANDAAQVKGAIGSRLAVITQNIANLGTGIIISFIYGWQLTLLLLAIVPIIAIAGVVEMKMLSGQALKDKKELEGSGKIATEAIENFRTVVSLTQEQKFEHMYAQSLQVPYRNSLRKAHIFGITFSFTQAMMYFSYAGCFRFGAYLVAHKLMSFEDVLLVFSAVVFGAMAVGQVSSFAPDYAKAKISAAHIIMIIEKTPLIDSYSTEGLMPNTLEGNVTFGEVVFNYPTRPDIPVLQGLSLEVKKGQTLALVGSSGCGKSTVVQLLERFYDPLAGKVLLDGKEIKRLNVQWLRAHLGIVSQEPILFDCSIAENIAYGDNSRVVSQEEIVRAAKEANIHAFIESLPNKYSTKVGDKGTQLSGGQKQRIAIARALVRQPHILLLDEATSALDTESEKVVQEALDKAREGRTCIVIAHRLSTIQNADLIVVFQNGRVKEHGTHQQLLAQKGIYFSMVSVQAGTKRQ
Chain of CYP3A4 (P08684 whole entry): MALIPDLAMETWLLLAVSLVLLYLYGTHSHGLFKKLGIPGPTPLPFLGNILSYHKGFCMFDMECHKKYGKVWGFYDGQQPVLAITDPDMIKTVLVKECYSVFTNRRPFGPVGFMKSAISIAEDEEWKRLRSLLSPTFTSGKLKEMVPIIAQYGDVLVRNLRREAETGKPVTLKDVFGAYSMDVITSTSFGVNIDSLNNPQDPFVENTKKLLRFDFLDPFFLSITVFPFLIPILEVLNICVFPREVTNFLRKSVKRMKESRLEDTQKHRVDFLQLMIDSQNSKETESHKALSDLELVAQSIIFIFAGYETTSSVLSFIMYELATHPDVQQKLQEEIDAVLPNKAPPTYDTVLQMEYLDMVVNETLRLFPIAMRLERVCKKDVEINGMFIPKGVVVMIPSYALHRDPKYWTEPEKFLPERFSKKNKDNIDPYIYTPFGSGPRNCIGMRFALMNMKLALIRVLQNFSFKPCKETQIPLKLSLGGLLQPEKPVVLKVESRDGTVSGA

OCc1ncc2n1-c1ccc(Cl)cc1C(c1ccccc1F)=NC2 [1-hydroxymidazolam]
AUC0-t (CYP3A4; [1]): 30,589 (24) h*pg/mL
AUC0-∞ (CYP3A4; [1]): 31,269 (23) h*pg/mL
Cmax (CYP3A4; [1]): 14,909 (60) pg/mL
t1/2 (CYP3A4; [1]): 6.34 (30) h
Tmax (CYP3A4; midazolam 7.5 mg single oral dose alone, N = 12, median (min, max)): 0.500 (0.500, 2.00) h
AUC0-t (CYP3A4; [2]): 32,627 (25) h*pg/mL
AUC0-∞ (CYP3A4; [2]): 33,372 (24) h*pg/mL
Cmax (CYP3A4; [2]): 15,852 (35) pg/mL
t1/2 (CYP3A4; [2]): 6.90 (27) h
Tmax (CYP3A4; midazolam 7.5 mg with tepotinib 500 mg once daily, N = 12, median (min, max)): 0.508 (0.483, 2.00) h
MR_AUC (metabolic ratio of 1-hydroxymidazolam AUC0-∞ and midazolam AUC0-∞) (CYP3A4; midazolam alone, geometric mean (geometric CV%)): 0.286 (37) ratio
MR_AUC (metabolic ratio of 1-hydroxymidazolam AUC0-∞ and midazolam AUC0-∞) (CYP3A4; midazolam with tepotinib 500 mg once daily, geometric mean (geometric CV%)): 0.302 (34) ratio

[H]/N=C(/N)c1ccc(NCc2nc3cc(C(=O)N(CCC(=O)O)c4ccccn4)ccc3n2C)cc1 [dabigatran]
half-life (P-gp; human, plasma, oral, read-out: Terminal half-life (converted)): ~8 h
Exposure increase to dabigatran with tepotinib (P-gp; tepotinib 500 mg QD orally): < 2 fold
Increase of dabigatran area under the curve extrapolated to infinity by tepotinib (P-gp; tepotinib 500 mg once daily): 51%
Increase of dabigatran AUC by coadministration with tepotinib (P-gp; tepotinib 500 mg once daily, compared to administration alone): ~50%
Ratio of Geometric LS Mean (90% CI), AUC0-t (P-gp; [3]): 151.38 (127.35, 179.93) %
Ratio of Geometric LS Mean (90% CI), AUC0-∞ (P-gp; [3]): 144.70 (122.89, 170.39) %

Cc1ncc2n1-c1ccc(Cl)cc1C(c1ccccc1F)=NC2 [midazolam]
Tmax (CYP3A4; human, plasma, oral): 0.508 h
half-life (CYP3A4; human, plasma, oral): ~5 h
AUC0-t (CYP3A4; human, plasma, po, 7.5 mg): 108 ng·h/mL
AUC(0-inf) (CYP3A4; human, plasma, po, 7.5 mg): 109 ng·h/mL
Cmax (CYP3A4; human, plasma, po, 7.5 mg): 49.2 ng/mL
Tmax (CYP3A4; human, plasma, po, 7.5 mg): 0.5 h
t1/2 (CYP3A4; [2]): 4.81 (41) h
Change in exposure to midazolam with tepotinib (in words) (CYP3A4; tepotinib 500 mg QD orally): no change in exposure
